Where two headings read alike, the source gives them in different places.
Tests used:
[1] = system: Normal human epidermal keratinocytes (NHEK); assay: Keratinocyte proliferation (DNA content, fluorometric); assay type: cell-based; conditions: for activation at 70 µM: 0.07 mM
Procedure: Normal human epidermal keratinocytes (NHEK) derived from neonatal foreskin were used for all experiments. Media were purchased from Clonetics Corp., San Diego, Calif. Cell stocks frozen in passage 2 were grown in Keratinocyte Growth Medium (KGM) and passaged when 70-80% confluent. Cells were seeded in 96 well plates (Corning) at a density of 7500 cells/well in KGM. After 24 hours, cells were rinsed and dosed with test compounds in 200 μl of Keratinocyte Basal Medium (KBM). Plates were incubated for three days at 37° C., 5% CO2. Cell proliferation was estimated by assaying for DNA content by a fluorometric method described by Rago et al. (Analytical Biochemistry, 191:31-34, 1990). Medium was removed and cells were rinsed with phosphate buffered saline solution. 100 μl of sterile distilled water was added to each well and plates were frozen at -70° C. for one and a half hours. Plates were thawed for one hour at which time 100 μl of a 20 ug/ml solution of Bisbenzimide H33258 fluorochrome (Calbiochem Corp., La Jolla, Calif.) was added to each well. The fluorochrome was prepared just prior to use in 10 mM Tris, 1 mM EDTA, 4M NaCI, pH 7.4. Plates were read in a Millipore Cytofluor fluorescent plate reader to quantify DNA (excitation 360 nm, emission 460 nm). Percent increase over control was calculated from blank-corrected readings as (treated-untreated)/(untreated)*100. Each data point in the Tables below represents a mean of 5 or 6 replicates.
The procedure of Example 2 was repeated except that various co-active ingredients were tested for their ability to stimulate keratinocyte proliferation.
The procedure of Example 2 was repeated to test the effect of combination of an LDH inhibitor with another carboxylic acid on keratinocyte proliferation.

procollagen 1 = assay: Assay for collagen synthesis (secreted procollagen 1 immunoassay, fibroblasts); conditions: actives 0.2 to 20 mM, serum-free medium, 48 hours
Procedure: Neonatal human dermal fibroblasts were purchased from Clonetics Corp., San Diego, Calif. All materials for cell culture were purchased from Life Technologies, N.Y. Cells were maintained in DMEM with 10% fetal bovine serum and used in passages 5-10. Confluent 96-well plates containing fibroblasts were treated with actives (0.2 to 20 mM) in serum-free medium for 48 hours. […] This was carried out in a BioDot SF apparatus according to the manufacturer's instructions (BioRad Labs, CA) and the blot was developed using a Vectastain Kit (PK6104, Vector Labs, CA) as per the manufacturer's directions. Color intensity was quantitated using an Ultroscan XL densitometer (Pharmacia LKB). Fold increase was calculated as (density of treated)/untreated.

CC(=O)O [Acetate]
activation at 2 µM ([1]; Homo sapiens, NHEK, 72 h, Table 4, Test A, 0.002 mM, read-out: Keratinocyte Proliferation (% increase over control)): 22% | activation at 20 µM ([1]; Homo sapiens, NHEK, 72 h, Table 4, Test A, 0.02 mM, read-out: Keratinocyte Proliferation (% increase over control)): 31% | activation at 200 µM ([1]; Homo sapiens, NHEK, 72 h, Table 4, Test A, 0.2 mM, read-out: Keratinocyte Proliferation (% increase over control)): 43% | activation at 2000 µM ([1]; Homo sapiens, NHEK, 72 h, Table 4, Test A, 2.0 mM, read-out: Keratinocyte Proliferation (% increase over control)): 46% | activation at 10000 µM ([1]; Homo sapiens, NHEK, 72 h, Table 4, Test A, 10 mM, read-out: Keratinocyte Proliferation (% increase over control)): 63% | activation at 200 µM ([1]; Homo sapiens, NHEK, 72 h, Table 4, Test B, 0.2 mM, read-out: Keratinocyte Proliferation (% increase over control)): 12% | activation at 2000 µM ([1]; Homo sapiens, NHEK, 72 h, Table 4, Test B, 2.0 mM, read-out: Keratinocyte Proliferation (% increase over control)): 19% | activation at 10000 µM ([1]; Homo sapiens, NHEK, 72 h, Table 4, Test B, 10 mM, read-out: Keratinocyte Proliferation (% increase over control)): 0% | activation at 20000 µM ([1]; Homo sapiens, NHEK, 72 h, Table 4, Test B, 20 mM, read-out: Keratinocyte Proliferation (% increase over control)): 0% | activation at 156 µM ([1]; Homo sapiens, NHEK, 72 h, Table 4, Test C, 0.156 mM, read-out: Keratinocyte Proliferation (% increase over control)): 13% | activation at 313 µM ([1]; Homo sapiens, NHEK, 72 h, Table 4, Test C, 0.313 mM, read-out: Keratinocyte Proliferation (% increase over control)): 32% | activation at 625 µM ([1]; Homo sapiens, NHEK, 72 h, Table 4, Test C, 0.625 mM, read-out: Keratinocyte Proliferation (% increase over control)): 9% | activation at 1250 µM ([1]; Homo sapiens, NHEK, 72 h, Table 4, Test C, 1.25 mM, read-out: Keratinocyte Proliferation (% increase over control)): 2% | activation at 2500 µM ([1]; Homo sapiens, NHEK, 72 h, Table 4, Test C, 2.5 mM, read-out: Keratinocyte Proliferation (% increase over control)): 11% | activation at 5000 µM ([1]; Homo sapiens, NHEK, 72 h, Table 4, Test C, 5.0 mM, read-out: Keratinocyte Proliferation (% increase over control)): 0% | activation at 10000 µM ([1]; Homo sapiens, NHEK, 72 h, Table 4, Test C, 10 mM, read-out: Keratinocyte Proliferation (% increase over control)): 0% | activation at 70 µM ([1]; Homo sapiens, NHEK, 72 h, Table 4, Test D, read-out: Keratinocyte Proliferation (% increase over control)): 50% | activation at 156 µM ([1]; Homo sapiens, NHEK, 72 h, Table 4, Test D, 0.156 mM, read-out: Keratinocyte Proliferation (% increase over control)): 47% | activation at 313 µM ([1]; Homo sapiens, NHEK, 72 h, Table 4, Test D, 0.313 mM, read-out: Keratinocyte Proliferation (% increase over control)): 56% | activation at 625 µM ([1]; Homo sapiens, NHEK, 72 h, Table 4, Test D, 0.625 mM, read-out: Keratinocyte Proliferation (% increase over control)): 57% | activation at 1250 µM ([1]; Homo sapiens, NHEK, 72 h, Table 4, Test D, 1.25 mM, read-out: Keratinocyte Proliferation (% increase over control)): 42% | activation at 2500 µM ([1]; Homo sapiens, NHEK, 72 h, Table 4, Test D, 2.5 mM, read-out: Keratinocyte Proliferation (% increase over control)): 44% | activation at 5000 µM ([1]; Homo sapiens, NHEK, 72 h, Table 4, Test D, 5.0 mM, read-out: Keratinocyte Proliferation (% increase over control)): 18% | activation at 70 µM ([1]; Homo sapiens, NHEK, 72 h, Table 4, Test E, read-out: Keratinocyte Proliferation (% increase over control)): 0% | activation at 156 µM ([1]; Homo sapiens, NHEK, 72 h, Table 4, Test E, 0.156 mM, read-out: Keratinocyte Proliferation (% increase over control)): 6% | activation at 313 µM ([1]; Homo sapiens, NHEK, 72 h, Table 4, Test E, 0.313 mM, read-out: Keratinocyte Proliferation (% increase over control)): 24% | activation at 313 µM ([1]; Homo sapiens, NHEK, 72 h, Table 4, Test F, 0.313 mM, read-out: Keratinocyte Proliferation (% increase over control)): 5% | activation at 625 µM ([1]; Homo sapiens, NHEK, 72 h, Table 4, Test F, 0.625 mM, read-out: Keratinocyte Proliferation (% increase over control)): 34% | activation at 1250 µM ([1]; Homo sapiens, NHEK, 72 h, Table 4, Test F, 1.25 mM, read-out: Keratinocyte Proliferation (% increase over control)): 35% | activation at 2500 µM ([1]; Homo sapiens, NHEK, 72 h, Table 4, Test F, 2.5 mM, read-out: Keratinocyte Proliferation (% increase over control)): 33% | activation at 5000 µM ([1]; Homo sapiens, NHEK, 72 h, Table 4, Test F, 5.0 mM, read-out: Keratinocyte Proliferation (% increase over control)): 7% | activation at 10000 µM ([1]; Homo sapiens, NHEK, 72 h, Table 4, Test F, 10 mM, read-out: Keratinocyte Proliferation (% increase over control)): 0% | activation at 313 µM ([1]; Homo sapiens, NHEK, 72 h, Table 4, Test G, 0.313 mM, read-out: Keratinocyte Proliferation (% increase over control)): 38% | activation at 625 µM ([1]; Homo sapiens, NHEK, 72 h, Table 4, Test G, 0.625 mM, read-out: Keratinocyte Proliferation (% increase over control)): 11% | activation at 1250 µM ([1]; Homo sapiens, NHEK, 72 h, Table 4, Test G, 1.25 mM, read-out: Keratinocyte Proliferation (% increase over control)): 24% | activation at 2500 µM ([1]; Homo sapiens, NHEK, 72 h, Table 4, Test G, 2.5 mM, read-out: Keratinocyte Proliferation (% increase over control)): 12% | activation at 5000 µM ([1]; Homo sapiens, NHEK, 72 h, Table 4, Test G, 5.0 mM, read-out: Keratinocyte Proliferation (% increase over control)): 18% | activation at 10000 µM ([1]; Homo sapiens, NHEK, 72 h, Table 4, Test G, 10 mM, read-out: Keratinocyte Proliferation (% increase over control)): 0% | Keratinocyte proliferation, % Increase Over Control ([1]; Table 7, single agent alone, 0.156 mM): 41% | Keratinocyte proliferation, % Increase Over Control ([1]; Table 7, single agent alone, 0.313 mM): 28% | Keratinocyte proliferation, % Increase Over Control ([1]; Table 7, single agent alone, 0.625 mM): 55% | Keratinocyte proliferation, % Increase Over Control ([1]; Table 7, single agent alone, 1.25 mM): 55% | Keratinocyte proliferation, % Increase Over Control ([1]; Table 7, single agent alone, 2.5 mM): 18% | Keratinocyte proliferation, % Increase Over Control ([1]; Table 7, single agent alone, 5.0 mM): 0% | Collagen Synthesis, Maximum fold over Control (procollagen 1): 2.0 fold

O=C(O)CC(=O)C(=O)O [Oxaloacetate]
activation at 2 µM ([1]; Homo sapiens, NHEK, 72 h, read-out: Keratinocyte Proliferation (% increase over Control), Table 5, Test A, 0.002 mM): 11% | activation at 20 µM ([1]; Homo sapiens, NHEK, 72 h, read-out: Keratinocyte Proliferation (% increase over Control), Table 5, Test A, 0.02 mM): 15% | activation at 200 µM ([1]; Homo sapiens, NHEK, 72 h, read-out: Keratinocyte Proliferation (% increase over Control), Table 5, Test A, 0.2 mM): 22% | activation at 2000 µM ([1]; Homo sapiens, NHEK, 72 h, read-out: Keratinocyte Proliferation (% increase over Control), Table 5, Test A, 2.0 mM): 53% | activation at 10000 µM ([1]; Homo sapiens, NHEK, 72 h, read-out: Keratinocyte Proliferation (% increase over Control), Table 5, Test A, 10 mM): 110% | activation at 20 µM ([1]; Homo sapiens, NHEK, 72 h, read-out: Keratinocyte Proliferation (% increase over Control), Table 5, Test B, 0.02 mM): 30% | activation at 200 µM ([1]; Homo sapiens, NHEK, 72 h, read-out: Keratinocyte Proliferation (% increase over Control), Table 5, Test B, 0.2 mM): 20% | activation at 2000 µM ([1]; Homo sapiens, NHEK, 72 h, read-out: Keratinocyte Proliferation (% increase over Control), Table 5, Test B, 2.0 mM): 16% | activation at 10000 µM ([1]; Homo sapiens, NHEK, 72 h, read-out: Keratinocyte Proliferation (% increase over Control), Table 5, Test B, 10 mM): 70% | activation at 20000 µM ([1]; Homo sapiens, NHEK, 72 h, read-out: Keratinocyte Proliferation (% increase over Control), Table 5, Test B, 20 mM): 44% | activation at 150 µM ([1]; Homo sapiens, NHEK, 72 h, read-out: Keratinocyte Proliferation (% increase over Control), Table 5, Test C, 0.15 mM): 13% | activation at 300 µM ([1]; Homo sapiens, NHEK, 72 h, read-out: Keratinocyte Proliferation (% increase over Control), Table 5, Test C, 0.3 mM): 18% | activation at 600 µM ([1]; Homo sapiens, NHEK, 72 h, read-out: Keratinocyte Proliferation (% increase over Control), Table 5, Test C, 0.6 mM): 20% | activation at 1250 µM ([1]; Homo sapiens, NHEK, 72 h, read-out: Keratinocyte Proliferation (% increase over Control), Table 5, Test C, 1.25 mM): 18% | activation at 2500 µM ([1]; Homo sapiens, NHEK, 72 h, read-out: Keratinocyte Proliferation (% increase over Control), Table 5, Test C, 2.5 mM): 40% | activation at 5000 µM ([1]; Homo sapiens, NHEK, 72 h, read-out: Keratinocyte Proliferation (% increase over Control), Table 5, Test C, 5.0 mM): 35% | activation at 10000 µM ([1]; Homo sapiens, NHEK, 72 h, read-out: Keratinocyte Proliferation (% increase over Control), Table 5, Test C, 10 mM): 0% | activation at 80 µM ([1]; Homo sapiens, NHEK, 72 h, read-out: Keratinocyte Proliferation (% increase over Control), Table 5, Test D, 0.08 mM): 56% | activation at 150 µM ([1]; Homo sapiens, NHEK, 72 h, read-out: Keratinocyte Proliferation (% increase over Control), Table 5, Test D, 0.15 mM): 76% | activation at 300 µM ([1]; Homo sapiens, NHEK, 72 h, read-out: Keratinocyte Proliferation (% increase over Control), Table 5, Test D, 0.3 mM): 63% | activation at 600 µM ([1]; Homo sapiens, NHEK, 72 h, read-out: Keratinocyte Proliferation (% increase over Control), Table 5, Test D, 0.6 mM): 48% | activation at 1250 µM ([1]; Homo sapiens, NHEK, 72 h, read-out: Keratinocyte Proliferation (% increase over Control), Table 5, Test D, 1.25 mM): 37% | activation at 2500 µM ([1]; Homo sapiens, NHEK, 72 h, read-out: Keratinocyte Proliferation (% increase over Control), Table 5, Test D, 2.5 mM): 37% | activation at 5000 µM ([1]; Homo sapiens, NHEK, 72 h, read-out: Keratinocyte Proliferation (% increase over Control), Table 5, Test D, 5.0 mM): 52% | activation at 10000 µM ([1]; Homo sapiens, NHEK, 72 h, read-out: Keratinocyte Proliferation (% increase over Control), Table 5, Test D, 10 mM): 52% | Collagen Synthesis, Maximum fold over Control (procollagen 1): 3.0 fold

O=C(O)CCC(=O)O [Succinate]
Keratinocyte proliferation, % Increase Over Control ([1]; Table 8, single agent alone, 0.156 mM): 48% | Keratinocyte proliferation, % Increase Over Control ([1]; Table 8, single agent alone, 0.313 mM): 48% | Keratinocyte proliferation, % Increase Over Control ([1]; Table 8, single agent alone, 0.625 mM): 39% | Keratinocyte proliferation, % Increase Over Control ([1]; Table 8, single agent alone, 1.25 mM): 51% | Keratinocyte proliferation, % Increase Over Control ([1]; Table 8, single agent alone, 2.5 mM): 58% | Keratinocyte proliferation, % Increase Over Control ([1]; Table 8, single agent alone, 5.0 mM): 0% | Collagen Synthesis, Maximum fold over Control (procollagen 1): 2.8 fold

Source: patent US5595730A, “Lactate dehydrogenase inhibitors in cosmetic compositions” (priority 1996, dated 1997)
